The first experiment addresses BTK wild type (Homo sapiens (Human), UniProt Q06187). Description: Inhibition assay of BTK kinase activity (HTRF). In kind it is biochemical.
Details: not given
The method, then: Inhibition Assay of BTK Kinase Activity:
The enzyme reaction mixture of BTK wild type standard HTRF assay contained 1 nM BTK wild type, 1 μM biotin-TK1 peptide, and 30 μM ATP in a buffer. The enzyme reaction were carried out at room temperature for 60 minutes. […] The plates were incubated at room temperature for 60 minutes and then read in the Envision plate reader.
On the technique in general: Time-resolved FRET reads energy transfer from a long-lived donor to a nearby acceptor.
Sequence of BTK wild type (Q06187 whole entry): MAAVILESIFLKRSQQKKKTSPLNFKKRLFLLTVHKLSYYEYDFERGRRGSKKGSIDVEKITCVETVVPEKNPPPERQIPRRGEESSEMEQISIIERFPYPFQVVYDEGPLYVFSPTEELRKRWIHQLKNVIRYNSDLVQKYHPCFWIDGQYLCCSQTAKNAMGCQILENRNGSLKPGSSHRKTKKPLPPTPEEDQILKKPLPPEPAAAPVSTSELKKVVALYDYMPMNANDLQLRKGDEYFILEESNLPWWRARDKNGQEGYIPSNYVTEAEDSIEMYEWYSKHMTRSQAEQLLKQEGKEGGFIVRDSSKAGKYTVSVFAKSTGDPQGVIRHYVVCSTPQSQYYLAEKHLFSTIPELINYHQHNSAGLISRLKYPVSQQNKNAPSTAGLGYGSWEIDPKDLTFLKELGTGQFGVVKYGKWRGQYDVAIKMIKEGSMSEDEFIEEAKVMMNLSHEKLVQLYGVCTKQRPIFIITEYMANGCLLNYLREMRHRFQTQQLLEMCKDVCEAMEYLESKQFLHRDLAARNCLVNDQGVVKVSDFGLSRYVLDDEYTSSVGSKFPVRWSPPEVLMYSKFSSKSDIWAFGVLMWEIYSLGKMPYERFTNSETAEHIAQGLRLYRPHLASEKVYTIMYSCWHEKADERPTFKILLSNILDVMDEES
In general, IC50 refers to the concentration that gives 50% inhibition. `Nc1ncnc2c1c(-c1ccc(Oc3c(F)c(F)cc(F)c3F)cc1F)nn2[C@@H]1CCN(C(=O)CCl)C1` [Compound 75, 1-((R)-3-(4-amino-3-(2-fluoro-4-(2,3,5,6-tetrafluorophenoxy)phenyl)-1H-pyrazolo[3,4-d]pyrimidin-1-yl)pyrrolidin-1-yl)-2-chloroethanone] came in with an IC50 of less than 0.01 µM.
On to `C=CC(=O)NC(C)(C)Cn1nc(-c2ccc(Oc3c(F)c(F)cc(F)c3F)cc2F)c2c(N)ncnc21` [Compound 87, N-(1-(4-amino-3-(2-fluoro-4-(2,3,5,6-tetrafluorophenoxy)phenyl)-1H-pyrazolo[3,4-d]pyrimidin-1-yl)-2-methylpropan-2-yl)acrylamide], for which the IC50 is less than 0.01 µM.

Staying with this experiment, now noted: all compounds with IC50 of less 10 nM; read-out: IC50 (BTK).
With `C=CC(=O)N1CC[C@@H](n2nc(-c3ccc(C(=O)c4ccccc4F)cc3F)c3c(N)ncnc32)C1` [Compound 72, 1-((R)-3-(4-amino-3-(2-fluoro-4-(2-fluorobenzoyl)phenyl)-1H-pyrazolo[3,4-d]pyrimidin-1-yl)pyrrolidin-1-yl)prop-2-en-1-one], the IC50 was less than 0.01 µM.
As for `CCOC(=O)/C=C/CNC(=O)N1CCCC(n2nc(-c3ccc(Oc4c(F)c(F)cc(F)c4F)cc3F)c3c(N)ncnc32)C1` (stereo not drawn) [Compound 74, (E)-ethyl 4-(3-(4-amino-3-(2-fluoro-4-(2,3,5,6-tetrafluorophenoxy)phenyl)-1H-pyrazolo[3,4-d]pyrimidin-1-yl)piperidine-1-carboxamido)but-2-enoate], the half-inhibitory concentration (IC50) was less than 0.01 µM.

The same experiment, now with this note: read-out: BTK IC50.
`Nc1ncnc2c1c(-c1ccc(Oc3c(F)c(F)cc(F)c3F)cc1F)nn2C1CCCN(C(=O)C2CNC(=O)S2)C1` (stereo not drawn) [Compound 63, 5-(3-(4-amino-3-(2-fluoro-4-(2,3,5,6-tetrafluorophenoxy)phenyl)-1H-pyrazolo[3,4-d]pyrimidin-1-yl)piperidine-1-carbonyl)thiazolidin-2-one]: the 50% inhibitory concentration (IC50) turned out to be 0.454 µM.
Turning to `C=C(C(=O)N1CCCC(n2nc(-c3ccc(Oc4c(F)c(F)cc(F)c4F)cc3F)c3c(N)ncnc32)C1)C(F)(F)F` (stereo not drawn) [Compound 64, 1-(3-(4-amino-3-(2-fluoro-4-(2,3,5,6-tetrafluorophenoxy)phenyl)-1H-pyrazolo[3,4-d]pyrimidin-1-yl)piperidin-1-yl)-2-(trifluoromethyl)prop-2-en-1-one], the half-maximal inhibitory concentration (IC50) is 0.006 µM.
`Nc1ncnc2c1c(-c1ccc(Oc3c(F)c(F)cc(F)c3F)cc1F)nn2C1CCCN(C(=O)CC(=O)C(F)(F)F)C1` (stereo not drawn) [Compound 65, 1-(3-(4-amino-3-(2-fluoro-4-(2,3,5,6-tetrafluorophenoxy)phenyl)-1H-pyrazolo[3,4-d]pyrimidin-1-yl)piperidin-1-yl)-4,4,4-trifluorobutane-1,3-dione]: the IC50 was determined as 0.119 µM.
Regarding `O=C(CC(=O)C(F)(F)F)Nc1ncnc2c1c(-c1ccc(Oc3c(F)c(F)cc(F)c3F)cc1F)nn2C1CCCNC1` (stereo not drawn) [Compound 66, 4,4,4-trifluoro-N-(3-(2-fluoro-4-(2,3,5,6-tetrafluorophenoxy)phenyl)-1-(piperidin-3-yl)-1H-pyrazolo[3,4-d]pyrimidin-4-yl)-3-oxobutanamide], the IC50 came out at 0.729 µM.
As to `Nc1ncnc2c1c(-c1ccc(Oc3c(F)c(F)cc(F)c3F)cc1F)nn2C1CCCN(C(=O)CC(=O)C2CC2)C1` (stereo not drawn) [Compound 67, 1-(3-(4-amino-3-(2-fluoro-4-(2,3,5,6-tetrafluorophenoxy)phenyl)-1H-pyrazolo[3,4-d]pyrimidin-1-yl)piperidin-1-yl)-3-cyclopropylpropane-1,3-dione], the IC50 amounted to 0.586 µM.
Turning to `C=C(CN1CCCC(n2nc(-c3ccc(Oc4c(F)c(F)cc(F)c4F)cc3F)c3c(N)ncnc32)C1)C(=O)OCC` (stereo not drawn) [Compound 68, ethyl 2-((3-(4-amino-3-(2-fluoro-4-(2,3,5,6-tetrafluorophenoxy)phenyl)-1H-pyrazolo[3,4-d]pyrimidin-1-yl)piperidin-1-yl)methyl)acrylate], the half-inhibitory concentration (IC50) worked out at 0.279 µM.
Still for that read-out and setting: to `C=C(CN1CCCC(n2nc(-c3ccc(Oc4c(F)c(F)cc(F)c4F)cc3F)c3c(N)ncnc32)C1)C(=O)NC` (stereo not drawn) [Compound 69, 2-((3-(4-amino-3-(2-fluoro-4-(2,3,5,6-tetrafluorophenoxy)phenyl)-1H-pyrazolo[3,4-d]pyrimidin-1-yl)piperidin-1-yl)methyl)-N-methylacrylamide] belongs 0.052 µM; to `C=C(C#N)CN1CCCC(n2nc(-c3ccc(Oc4c(F)c(F)cc(F)c4F)cc3F)c3c(N)ncnc32)C1` (stereo not drawn) [Compound 70, 2-((3-(4-amino-3-(2-fluoro-4-(2,3,5,6-tetrafluorophenoxy)phenyl)-1H-pyrazolo[3,4-d]pyrimidin-1-yl)piperidin-1-yl)methyl)acrylonitrile], 0.017 µM; to `C=CC(=O)N1CC[C@@H](n2nc(-c3ccc(C(=O)c4ccccc4F)cc3F)c3c(N)ncnc32)C1` [Compound 72, 1-((R)-3-(4-amino-3-(2-fluoro-4-(2-fluorobenzoyl)phenyl)-1H-pyrazolo[3,4-d]pyrimidin-1-yl)pyrrolidin-1-yl)prop-2-en-1-one], 0.001 µM.
The same measure, in the same setting: as for `CCOC(=O)/C=C/CNC(=O)N1CCCC(n2nc(-c3ccc(Oc4c(F)c(F)cc(F)c4F)cc3F)c3c(N)ncnc32)C1` (stereo not drawn) [Compound 74, (E)-ethyl 4-(3-(4-amino-3-(2-fluoro-4-(2,3,5,6-tetrafluorophenoxy)phenyl)-1H-pyrazolo[3,4-d]pyrimidin-1-yl)piperidine-1-carboxamido)but-2-enoate], the figure is 0.003 µM; as for `Nc1ncnc2c1c(-c1ccc(Oc3c(F)c(F)cc(F)c3F)cc1F)nn2[C@@H]1CCN(C(=O)CCl)C1` [Compound 75, 1-((R)-3-(4-amino-3-(2-fluoro-4-(2,3,5,6-tetrafluorophenoxy)phenyl)-1H-pyrazolo[3,4-d]pyrimidin-1-yl)pyrrolidin-1-yl)-2-chloroethanone], 0.003 µM; as for `CNC(=O)/C=C/CNC(=O)N1CC[C@@H](n2nc(-c3ccc(Oc4c(F)c(F)cc(F)c4F)cc3F)c3c(N)ncnc32)C1` [Compound 76, (3R)-3-(4-amino-3-(2-fluoro-4-(2,3,5,6-tetrafluorophenoxy)phenyl)-1H-pyrazolo[3,4-d]pyrimidin-1-yl)-N-(4-(methylamino)-4-oxobut-2-enyl)pyrrolidine-1-carboxamide], 0.027 µM.
Same read-out and setting: to `Nc1ncnc2c1c(-c1ccc(Oc3c(F)c(F)cc(F)c3F)cc1F)nn2[C@@H]1CCN(C(=O)C(=O)C(F)(F)F)C1` [Compound 77, 1-((R)-3-(4-amino-3-(2-fluoro-4-(2,3,5,6-tetrafluorophenoxy)phenyl)-1H-pyrazolo[3,4-d]pyrimidin-1-yl)pyrrolidin-1-yl)-3,3,3-trifluoropropane-1,2-dione] belongs 0.201 µM; to `Nc1ncnc2c1c(-c1ccc(Oc3c(F)c(F)cc(F)c3F)cc1F)nn2[C@@H]1CCN(C(=O)C(=O)C2CC2)C1` [Compound 78, 1-((R)-3-(4-amino-3-(2-fluoro-4-(2,3,5,6-tetrafluorophenoxy)phenyl)-1H-pyrazolo[3,4-d]pyrimidin-1-yl)pyrrolidin-1-yl)-2-cyclopropylethane-1,2-dione], 1.9 µM; to `CC(C)C(=O)C(=O)N1CC[C@@H](n2nc(-c3ccc(Oc4c(F)c(F)cc(F)c4F)cc3F)c3c(N)ncnc32)C1` [Compound 79, 1-((R)-3-(4-amino-3-(2-fluoro-4-(2,3,5,6-tetrafluorophenoxy)phenyl)-1H-pyrazolo[3,4-d]pyrimidin-1-yl)pyrrolidin-1-yl)-3-methylbutane-1,2-dione], 1.66 µM.
On to `CC(C)(CO)C(=O)C(=O)N1CC[C@@H](n2nc(-c3ccc(Oc4c(F)c(F)cc(F)c4F)cc3F)c3c(N)ncnc32)C1` [Compound 80, 1-((R)-3-(4-amino-3-(2-fluoro-4-(2,3,5,6-tetrafluorophenoxy)phenyl)-1H-pyrazolo[3,4-d]pyrimidin-1-yl)pyrrolidin-1-yl)-4-hydroxy-3,3-dimethylbutane-1,2-dione], for which the half-maximal inhibitory concentration (IC50) was 1.28 µM.
`Nc1ncnc2c1c(-c1ccc(Oc3c(F)c(F)cc(F)c3F)cc1F)nn2C1CCCN(C(=O)C(=O)C2CC2)C1` (stereo not drawn) [Compound 81, 1-(3-(4-amino-3-(2-fluoro-4-(2,3,5,6-tetrafluorophenoxy)phenyl)-1H-pyrazolo[3,4-d]pyrimidin-1-yl)piperidin-1-yl)-2-cyclopropylethane-1,2-dione]: the 50% inhibitory concentration (IC50) turned out to be 2.24 µM.
Consider `C=CC(=O)NCCn1nc(-c2ccc(Oc3c(F)c(F)cc(F)c3F)cc2F)c2c(N)ncnc21` [Compound 82, N-(2-(4-amino-3-(2-fluoro-4-(2,3,5,6-tetrafluorophenoxy)phenyl)-1H-pyrazolo[3,4-d]pyrimidin-1-yl)ethyl)acrylamide], for which the IC50 came out at 0.025 µM.
With `C=CC(=O)NC(C)C(C)n1nc(-c2ccc(Oc3c(F)c(F)cc(F)c3F)cc2F)c2c(N)ncnc21` (stereo not drawn) [Compound 83, N-(3-(4-amino-3-(2-fluoro-4-(2,3,5,6-tetrafluorophenoxy)phenyl)-1H-pyrazolo[3,4-d]pyrimidin-1-yl)butan-2-yl)acrylamide], the IC50 was found to be 0.075 µM.
Consider `C=CC(=O)NCC(C)n1nc(-c2ccc(Oc3c(F)c(F)cc(F)c3F)cc2F)c2c(N)ncnc21` (stereo not drawn) [Compound 84, N-(2-(4-amino-3-(2-fluoro-4-(2,3,5,6-tetrafluorophenoxy)phenyl)-1H-pyrazolo[3,4-d]pyrimidin-1-yl)propyl)acrylamide], for which the IC50 amounted to 0.016 µM.
On the same count and under the same terms, as for `C=CC(=O)N(C)CCn1nc(-c2ccc(Oc3c(F)c(F)cc(F)c3F)cc2F)c2c(N)ncnc21` [Compound 85, N-(2-(4-amino-3-(2-fluoro-4-(2,3,5,6-tetrafluorophenoxy)phenyl)-1H-pyrazolo[3,4-d]pyrimidin-1-yl)ethyl)-N-methylacrylamide], the figure is 0.017 µM; as for `C=CC(=O)N(C)CCCn1nc(-c2ccc(Oc3c(F)c(F)cc(F)c3F)cc2F)c2c(N)ncnc21` [Compound 86, N-(3-(4-amino-3-(2-fluoro-4-(2,3,5,6-tetrafluorophenoxy)phenyl)-1H-pyrazolo[3,4-d]pyrimidin-1-yl)propyl)-N-methylacrylamide], 0.008 µM; as for `C=CC(=O)NC(C)(C)Cn1nc(-c2ccc(Oc3c(F)c(F)cc(F)c3F)cc2F)c2c(N)ncnc21` [Compound 87, N-(1-(4-amino-3-(2-fluoro-4-(2,3,5,6-tetrafluorophenoxy)phenyl)-1H-pyrazolo[3,4-d]pyrimidin-1-yl)-2-methylpropan-2-yl)acrylamide], 0.008 µM.
Regarding `C=CC(=O)N1CC[C@@H](n2nc(-c3ccc(Oc4ccnc(C(=O)NC)c4)cc3F)c3c(N)ncnc32)C1` [Compound 88, 4-(4-(1-((R)-1-acryloylpyrrolidin-3-yl)-4-amino-1H-pyrazolo[3,4-d]pyrimidin-3-yl)-3-fluorophenoxy)-N-methylpicolinamide], the 50% inhibitory concentration (IC50) came out at 0.011 µM.
For the compound `C=CC(=O)N1CC[C@@H](n2nc(-c3ccc(Oc4ccnc5cc(OC)c(OC)cc45)cc3F)c3c(N)ncnc32)C1` [Compound 89, 1-((R)-3-(4-amino-3-(4-(6,7-dimethoxyquinolin-4-yloxy)-2-fluorophenyl)-1H-pyrazolo[3,4-d]pyrimidin-1-yl)pyrrolidin-1-yl)prop-2-en-1-one], the IC50 was found to be 0.025 µM.
In the case of `C=CC(=O)N1CC[C@@H](n2nc(-c3ccc(Oc4ccnc5ccccc45)cc3F)c3c(N)ncnc32)C1` [Compound 90, 1-((R)-3-(4-amino-3-(2-fluoro-4-(quinolin-4-yloxy)phenyl)-1H-pyrazolo[3,4-d]pyrimidin-1-yl)pyrrolidin-1-yl)prop-2-en-1-one], the IC50 is 0.015 µM.

The values above are taken from patent publication US9532990B2 (Zhejiang DTRM Biopharma Co. Ltd., priority 2014, dated 2017).
